Results taken from patent publication US8940310B2, “Methods of treatment using TLR7 and/or TLR9 inhibitors” (Dynavax Technologies Corporation, priority 2010, dated 2015).
[I] = hypoxanthine (inosine)

Tests used:
PDC = conditions: 129 mice, conventional and plasmacytoid DC, spleen and blood
[1] = Monomer and tetramer formation of IRPs, size-exclusion HPLC; type: physicochemical; conditions: 100 mg/mL in PBS and 0.5M KCl, room temperature
Procedure: Solutions were prepared of the by mixing 100 mg/mL of the IRP sequences in PBS and 0.5M KCl and storing at room temperature for three to five weeks. The solutions were subsequently analyzed by size-exclusion HPLC.

[2] = High dosages of IRPs in rats (weight, deaths, histology); type: in vivo, Sprague Dawley rats; conditions: rat; for Heart: Cell Vacuolation, number of animals / Heart: Hemorrhage, number of animals / Heart: Mononuclear Cell Infiltration, number of animals / Heart: Necrosis, number of animals / Heart: No significant changes, number of animals / Liver: Liver changes, number of animals / Liver: Mixed cell infiltration, number of animals / Liver: Necrosis, number of animals / Liver: No significant changes, number of animals / Liver: Vacuolation, number of animals / Right Kidney: Hydronephrosis, number of animals / Right Kidney: Mineralization, number of animals / Right Kidney: Necrosis, number of animals / Right Kidney: No significant changes, number of animals / Right Kidney: Tubular basophilia, number of animals / Right Kidney: Tubular changes, number of animals: 6 animals
Procedure: To test the activity of IRPs at high dosages in rats, IRPs (SEQ ID NO:42 and SEQ ID NO:109) or a control (PBS) were subcutaneously administered to 8-9 weeks old, […], 3, 6, and 9 (n=6 per group). Rats were weighed prior to administration and on days 1, 3, 4, 6, 7, and 9. Organs were harvested at the end of the study, and organ weights and tissues levels of the oligonucleotides were determined. In addition, histolocial evaluation of the liver, kidney, and heart was performed.
Rats were weighed prior to administration and on days 1, 3, 6, 7, and 9. Organs were harvested at the end of the study, and organ weights and tissues levels of the oligonucleotides were determined. In addition, histological evaluation of the liver, kidney, and heart was performed.

[3] = High dosages of IRPs in mice (weight, histology); type: in vivo, BALB/c mice; conditions: 100 mg/kg SC days 1, 4, 7, 10
Procedure: To test the activity of IRPs at high dosages in mice, IRPs or a control (saline) were subcutaneously administered to BALB/c mice at a dosage of 4 mg/kg, 20 mg/kg, 50 mg/kg, or 100 mg/kg on days 1, 4, 7, and 10 (n=5 per group). Mice were weighed prior to administration and on days 2, 4, 7, 9, and 11. Serum cytokines were assayed at two hours post the first and third injections and 24 hours post the fourth injection. Organs were harvested at the end of the study, and organ weights and tissues levels of the oligonucleotides were determined. In addition, histological evaluation of the liver, kidney, and heart was performed.
Mice were weighed prior to administration and on days 1, 3, 4, 6, 7, and 9. Organs were harvested at the end of the study, and organ weights and tissues levels of the oligonucleotides were determined. In addition, histological evaluation of the liver, kidney, and heart was performed.

human B-cells = assay: Human B-cells cultured in the presence of IRPs, IL-6
[4] = Solubility of spacer measured as dialcohol precursor; type: physicochemical; conditions: dodecyl spacer measured as dialcohol precursor
[5] = 10 mg/kg, 0 = no change to 4 = severe
[6] = 90 mg/kg, 0 = no change to 4 = severe

5′-TCGTCGAACGTTCGAGATGAT-3′ [SEQ ID NO:158, reference compound]
protection from GC-induced cell death (PDC): afforded significant protection from GC-induced cell death

5′-UGC TGC TCC TTG AGI GGT TGT TTG T-3′ (DNA UGCTGCTCCTTGAGNGGTTGTTTGT; DNA, [I] at 15, backbone and methylation of C not given here) [SEQ ID NO:109]
fraction in monomer form ([1]; five weeks): 100% | fraction in monomer form ([1]; three weeks): 100% | Kidney: tubular basophilia ([2]; 10 mg/kg): occurred | organ weight of the liver, heart, kidney, or spleen ([2]; 10 mg/kg or 100 mg/kg SC days 0, 3, 6, 9): no significant difference | Heart: Cell Vacuolation, number of animals ([2]; 10 mg/kg): 0 | Heart: Hemorrhage, number of animals ([2]; 10 mg/kg): 0 | Heart: Mononuclear Cell Infiltration, number of animals ([2]; 10 mg/kg): 0 | Heart: Necrosis, number of animals ([2]; 10 mg/kg): 0 | Heart: No significant changes, number of animals ([2]; 10 mg/kg): 6 | Liver: Liver changes, number of animals ([2]; 10 mg/kg): 6 | Liver: Mixed cell infiltration, number of animals ([2]; 10 mg/kg): 6 | Liver: Necrosis, number of animals ([2]; 10 mg/kg): 0 | Liver: No significant changes, number of animals ([2]; 10 mg/kg): 0 | Liver: Vacuolation, number of animals ([2]; 10 mg/kg): 0 | Right Kidney: Hydronephrosis, number of animals ([2]; 10 mg/kg): 0 | Right Kidney: Mineralization, number of animals ([2]; 10 mg/kg): 0 | Right Kidney: Necrosis, number of animals ([2]; 10 mg/kg): 0 | Right Kidney: No significant changes, number of animals ([2]; 10 mg/kg): 0 | Right Kidney: Tubular basophilia, number of animals ([2]; 10 mg/kg): 6 | Right Kidney: Tubular changes, number of animals ([2]; 10 mg/kg): 6 | Liver: Liver changes, mean severity score [2, 5]: 1.0 | Liver: Mixed cell infiltration, mean severity score [2, 5]: 2.5 | Right Kidney: Tubular basophilia, mean severity score [2, 5]: 1.5 | Right Kidney: Tubular changes, mean severity score [2, 5]: 1.0 | Heart: cellular vacuolation ([2]; 90 mg/kg): present in some animals | Heart: hemorrhage and necrosis ([2]; 90 mg/kg): noted | Kidney: tubular basophilia ([2]; 90 mg/kg): occurred | Liver: hepatocellular cytoplasmic vacuolation ([2]; 90 mg/kg): hepatocellular cytoplasmic vacuolation | Liver: hepatocellular necrosis ([2]; 90 mg/kg): hepatocellular necrosis | Renal necrosis ([2]; 90 mg/kg): noted | deaths two days after the first dose ([2]; 90 mg/kg SC, n=6): one rat died | Heart: Cell Vacuolation, number of animals ([2]; 90 mg/kg): 5 | Heart: Hemorrhage, number of animals ([2]; 90 mg/kg): 1 | Heart: Mononuclear Cell Infiltration, number of animals ([2]; 90 mg/kg): 0 | Heart: Necrosis, number of animals ([2]; 90 mg/kg): 1 | Heart: No significant changes, number of animals ([2]; 90 mg/kg): 0 | Liver: Liver changes, number of animals ([2]; 90 mg/kg): 6 | Liver: Mixed cell infiltration, number of animals ([2]; 90 mg/kg): 6 | Liver: Necrosis, number of animals ([2]; 90 mg/kg): 6 | Liver: No significant changes, number of animals ([2]; 90 mg/kg): 0 | Liver: Vacuolation, number of animals ([2]; 90 mg/kg): 6 | Right Kidney: Hydronephrosis, number of animals ([2]; 90 mg/kg): 0 | Right Kidney: Mineralization, number of animals ([2]; 90 mg/kg): 1 | Right Kidney: Necrosis, number of animals ([2]; 90 mg/kg): 1 | Right Kidney: No significant changes, number of animals ([2]; 90 mg/kg): 0 | Right Kidney: Tubular basophilia, number of animals ([2]; 90 mg/kg): 5 | Right Kidney: Tubular changes, number of animals ([2]; 90 mg/kg): 5 | Heart: Cell Vacuolation, mean severity score [2, 6]: 1.8 | Heart: Hemorrhage, mean severity score [2, 6]: 3.0 | Heart: Necrosis, mean severity score [2, 6]: 1.0 | Liver: Liver changes, mean severity score [2, 6]: 3.5 | Liver: Mixed cell infiltration, mean severity score [2, 6]: 2.0 | Liver: Necrosis, mean severity score [2, 6]: 2.0 | Liver: Vacuolation, mean severity score [2, 6]: 2.0 | Right Kidney: Mineralization, mean severity score [2, 6]: 1.0 | Right Kidney: Necrosis, mean severity score [2, 6]: 4.0 | Right Kidney: Tubular basophilia, mean severity score [2, 6]: 3.0 | Right Kidney: Tubular changes, mean severity score [2, 6]: 2.0 | total weight and % weight gain/loss ([2]; 100 mg/kg): decrease in total weight and % weight gain/loss | weight loss as % gain versus pre-dose [3]: provoked weight loss | Normalized IL-6 Response (Percentage of Positive Control) (human B-cells; Experiment # 1, Max Conc 4.0 uM): 58% | Normalized IL-6 Response (Percentage of Positive Control) (human B-cells; Experiment # 2, Max Conc 4.0 uM): 52% | Normalized IL-6 Response (Percentage of Positive Control) (human B-cells; Experiment # 3, Max Conc 4.0 uM): 39% | Normalized IL-6 Response (Percentage of Positive Control) (human B-cells; Experiment # 4, Max Conc 4.0 uM): 45% | Normalized IL-6 Response (Percentage of Positive Control) (human B-cells; Experiment # 5, Max Conc 4.0 uM): 53% | Normalized IL-6 Response (Percentage of Positive Control) (human B-cells; Experiment # 6, Max Conc 4.0 uM): 58% | Normalized IL-6 Response (Percentage of Positive Control) (human B-cells; Experiment # 7, Max Conc 4.0 uM): 45% | Normalized IL-6 Response (Percentage of Positive Control) (human B-cells; Experiment # 8, Max Conc 2.0 uM): 42% | Normalized IL-6 Response (Percentage of Positive Control) (human B-cells; Experiment # 9, Max Conc 2.0 uM): 64% | Normalized IL-6 Response (Percentage of Positive Control) (human B-cells; Experiment # 10, Max Conc 2.0 uM): 63% | Normalized IL-6 Response (Percentage of Positive Control) (human B-cells; Experiment # 11, Max Conc 2.0 uM): 54% | B-cell response as evidenced by IL-6 produced (human B-cells; human B-cells with IRP alone, 48 hours, FIGS. 1A-B): induced a B-cell response

OCCCCCCCCCCCCO [1,12-dihydroxydodecane]
solubility [4]: < 5000 µg/mL
